US20250215029A1 (Recludix Pharma, Inc., priority 2022, published 2025)
Read-outs that look alike come from different tables or passages of the source.

Columns and labels:
[1] = target: T1, Recombinant STAT3 protein (STAT3 (G127-I722)) (Homo sapiens, UniProt P40763); test: STAT3 Fluorescence Polarization (FP) Assay; type: binding; conditions: STAT3 (G127-I722) 25 nM, probe 5-FAM-GpYLPQTV-NH2 2 nM, 45-minute incubation; read-out: STAT3 (FP assay IC50 class)
T1 construct: Recombinant STAT3 protein (STAT3 (G127-I722))
T1 sequence (P40763 127-722): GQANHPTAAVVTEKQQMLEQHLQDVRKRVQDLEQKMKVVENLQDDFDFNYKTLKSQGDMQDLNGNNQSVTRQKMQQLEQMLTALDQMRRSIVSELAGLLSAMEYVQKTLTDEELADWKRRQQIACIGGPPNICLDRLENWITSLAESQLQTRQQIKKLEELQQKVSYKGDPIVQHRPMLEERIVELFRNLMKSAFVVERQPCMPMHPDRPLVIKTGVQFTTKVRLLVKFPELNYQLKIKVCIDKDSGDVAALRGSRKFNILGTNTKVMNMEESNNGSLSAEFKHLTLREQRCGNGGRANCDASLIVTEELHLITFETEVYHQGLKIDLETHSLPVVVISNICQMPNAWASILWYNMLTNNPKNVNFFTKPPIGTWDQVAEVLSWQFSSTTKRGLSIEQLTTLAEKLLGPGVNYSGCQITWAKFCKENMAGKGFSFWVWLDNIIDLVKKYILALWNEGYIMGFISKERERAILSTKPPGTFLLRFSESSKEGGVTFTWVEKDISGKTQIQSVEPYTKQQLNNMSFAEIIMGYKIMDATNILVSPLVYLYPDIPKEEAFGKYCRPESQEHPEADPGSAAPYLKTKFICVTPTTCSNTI
How it was run: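 Read-out is fluorescence polarization (mP) after 45 min at room temperature, with IC50 fitted by nonlinear regression against log compound concentration. Mixture: 25 nM STAT3 (G127-I722), 2 nM 5-FAM-GpYLPQTV-NH2 phosphopeptide, 10 mM HEPES pH 7.4 buffer, 1% DMSO.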

[2] = target: T2, Recombinant STAT6 protein (STAT6 (W123-T658)) (Homo sapiens, UniProt P42226); test: STAT6 Fluorescence Polarization (FP) Assay; type: binding; conditions: STAT6 (W123-T658) 250 nM, 45-minute incubation, read-out: STAT6 (FP assay IC50 class)
T2 construct: Recombinant STAT6 protein (STAT6 (W123-T658))
T2 sequence (P42226 123-658): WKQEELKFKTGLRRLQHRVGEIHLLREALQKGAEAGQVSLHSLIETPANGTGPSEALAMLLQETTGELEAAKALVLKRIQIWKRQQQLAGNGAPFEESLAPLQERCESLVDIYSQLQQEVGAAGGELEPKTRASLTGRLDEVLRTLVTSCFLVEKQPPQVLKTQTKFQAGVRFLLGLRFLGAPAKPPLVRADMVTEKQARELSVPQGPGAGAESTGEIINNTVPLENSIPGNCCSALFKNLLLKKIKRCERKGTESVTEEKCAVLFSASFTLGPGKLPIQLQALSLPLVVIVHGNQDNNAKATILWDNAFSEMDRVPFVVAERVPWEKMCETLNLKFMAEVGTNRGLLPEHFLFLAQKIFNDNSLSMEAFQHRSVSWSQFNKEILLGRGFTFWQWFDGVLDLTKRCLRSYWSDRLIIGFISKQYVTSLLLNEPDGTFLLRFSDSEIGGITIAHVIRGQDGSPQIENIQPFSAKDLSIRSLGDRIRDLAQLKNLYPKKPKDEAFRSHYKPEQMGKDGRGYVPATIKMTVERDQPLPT
How it was run: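 Competitive FP binding: recombinant STAT6 (W123-T658) at 250 nM, labeled phosphotyrosine peptide at 2 nM, compounds at 1% DMSO, 45 min at RT before reading. IC50 values were obtained from nonlinear regression of mP versus log concentration.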

[3] = probe 5-FAM-ApYKPFQDLI-NH2 2 nM

| Structure (SMILES) | IC50 [1] [nM] | IC50 ([2]; probe 5-FAM-Ap[…]-NH2 2 nM) [nM] | IC50 [2, 3] [nM] |
| --- | --- | --- | --- |
| COc1ccncc1C1CN(C(=O)[C@@H]2CC[C@@H]3CCC[C@H](NC(=O)c4cc5cc([C@H](F)P(=O)(O)O)ccc5s4)C(=O)N32)C1 (single isomer, unassigned) [Compound 747] | < 100 | 3000 to 30000 | – |
| CC(C)Oc1ccncc1C1CN(C(=O)[C@@H]2CC[C@@H]3C[C@@H](C)C[C@H](NC(=O)c4cc5cc([C@H](F)P(=O)(O)O)ccc5s4)C(=O)N32)C1 (single isomer, unassigned) [Compound 748] | < 100 | 3000 to 30000 | – |
| Cc1ccncc1C1CN(C(=O)[C@@H]2CC[C@@H]3C[C@H](C)C[C@H](NC(=O)c4cc5cc([C@@H](F)P(=O)(O)O)ccc5s4)C(=O)N32)C1 (single isomer, unassigned) [Compound 753] | < 100 | 3000 to 30000 | – |
| Cc1ccncc1C1CN(C(=O)[C@@H]2CC[C@@H]3CCC[C@H](NC(=O)c4cc5cc([C@@H](F)P(=O)(O)O)ccc5s4)C(=O)N32)C1 (single isomer, unassigned) [Compound 755] | < 100 | 3000 to 30000 | – |
| COc1ccncc1C1CN(C(=O)[C@@H]2CC[C@@H]3CCC[C@H](NC(=O)c4cc5cc([C@@H](F)P(=O)(O)O)ccc5s4)C(=O)N32)C1 (single isomer, unassigned) [Compound 756] | < 100 | 3000 to 30000 | – |
| CCOc1ccncc1C1CN(C(=O)[C@@H]2CC[C@@H]3CCC[C@H](NC(=O)c4cc5cc([C@@H](F)P(=O)(O)O)ccc5s4)C(=O)N32)C1 (single isomer, unassigned) [Compound 771] | < 100 | 3000 to 30000 | – |
| CCOc1ccncc1C1CN(C(=O)[C@@H]2CC[C@@H]3CCC[C@H](NC(=O)c4cc5cc([C@H](F)P(=O)(O)O)ccc5s4)C(=O)N32)C1 (single isomer, unassigned) [Compound 772] | < 100 | 3000 to 30000 | – |
| C[C@H]1C[C@H]2CC[C@@H](C(=O)N3C[C@@H](C#N)[C@H](c4ccccc4)C3)N2C(=O)[C@@H](NC(=O)c2cc3cc(C(F)(F)P(=O)(O)O)ccc3s2)C1 (single isomer, unassigned) [Compound 782] | 100 to 1000 | 300 to 3000 | – |
| N#C[C@@H]1[C@@H](c2ccccc2)CN(C(=O)[C@@H]2CC[C@@H]3CCCC[C@H](NC(=O)c4ccc5ccc([C@@H](F)P(=O)(O)O)cc5c4)C(=O)N32)C12CC2 (single isomer, unassigned) [Compound 832] | 1000 to 10000 | ≤ 300 | – |
| N#C[C@@H]1[C@@H](c2cccnc2)CN(C(=O)[C@@H]2CC[C@@H]3CCC[C@H](NC(=O)c4cc5cc([C@H](F)P(=O)(O)O)ccc5s4)C(=O)N32)C12CC2 (single isomer, unassigned) [Compound 833] | 1000 to 10000 | ≤ 300 | – |
| N#C[C@@H]1[C@@H](c2ccccc2)CN(C(=O)[C@@H]2CC[C@@H]3CCCC[C@H](NC(=O)c4cc5cc([C@H](F)P(=O)(O)O)ccc5s4)C(=O)N32)C12CC2 (single isomer, unassigned) [Compound 835] | 1000 to 10000 | ≤ 300 | – |
| N#C[C@H]1[C@H](c2ccccc2)CN(C(=O)[C@@H]2CC[C@@H]3CCCC[C@H](NC(=O)c4cc5cc([C@@H](F)P(=O)(O)O)ccc5s4)C(=O)N32)C12CC2 (single isomer, unassigned) [Compound 836] | 1000 to 10000 | ≤ 300 | – |
| N#C[C@@H]1[C@@H](c2cccnc2)CN(C(=O)[C@@H]2CC[C@@H]3CCC[C@H](NC(=O)c4cc5cc([C@@H](F)P(=O)(O)O)ccc5s4)C(=O)N32)C12CC2 (single isomer, unassigned) [Compound 837] | 1000 to 10000 | ≤ 300 | – |
| N#C[C@@H]1[C@@H](c2cccnc2)CN(C(=O)[C@@H]2CC[C@@H]3CCCC[C@H](NC(=O)c4cc5cc([C@H](F)P(=O)(O)O)ccc5s4)C(=O)N32)C12CC2 (single isomer, unassigned) [Compound 839] | 1000 to 10000 | ≤ 300 | – |
| N#C[C@@H]1[C@@H](c2cccnc2)CN(C(=O)[C@@H]2CC[C@@H]3CCCC[C@H](NC(=O)c4cc5cc([C@H](F)P(=O)(O)O)ccc5s4)C(=O)N32)C12CC2 (single isomer, unassigned) [Compound 840] | 1000 to 10000 | – | ≤ 300 |
| N#C[C@@H]1[C@@H](c2cncc(Cl)c2)CN(C(=O)[C@@H]2CC[C@@H]3CCC[C@H](NC(=O)c4cc5cc([C@H](F)P(=O)(O)O)ccc5s4)C(=O)N32)C12CC2 (single isomer, unassigned) [Compound 841] | 1000 to 10000 | 300 to 3000 | – |
| N#C[C@@H]1[C@@H](c2cncc(Cl)c2)CN(C(=O)[C@@H]2CC[C@@H]3CCC[C@H](NC(=O)c4cc5cc([C@H](F)P(=O)(O)O)ccc5s4)C(=O)N32)C12CC2 (single isomer, unassigned) [Compound 842] | 1000 to 10000 | – | 300 to 3000 |
| COc1cncc([C@@H]2CN(C(=O)[C@@H]3CC[C@@H]4CCC[C@H](NC(=O)c5cc6cc([C@H](F)P(=O)(O)O)ccc6s5)C(=O)N43)C3(CC3)[C@H]2C#N)c1 (single isomer, unassigned) [Compound 843] | 1000 to 10000 | 300 to 3000 | – |
| COc1cncc([C@H]2CN(C(=O)[C@@H]3CC[C@@H]4CCC[C@H](NC(=O)c5cc6cc([C@@H](F)P(=O)(O)O)ccc6s5)C(=O)N43)C3(CC3)[C@@H]2C#N)c1 (single isomer, unassigned) [Compound 844] | 1000 to 10000 | 300 to 3000 | – |
| N#C[C@@H]1[C@@H](c2cncc(Cl)c2)CN(C(=O)[C@@H]2CC[C@@H]3CCCC[C@H](NC(=O)c4cc5cc([C@H](F)P(=O)(O)O)ccc5s4)C(=O)N32)C12CC2 (single isomer, unassigned) [Compound 845] | 1000 to 10000 | ≤ 300 | – |
| N#C[C@@H]1[C@@H](c2cncc(Cl)c2)CN(C(=O)[C@@H]2CC[C@@H]3CCCC[C@H](NC(=O)c4cc5cc(C(F)P(=O)(O)O)ccc5s4)C(=O)N32)C12CC2 (single isomer, unassigned) [Compound 846] | 1000 to 10000 | 300 to 3000 | – |
| COc1cncc([C@@H]2CN(C(=O)[C@@H]3CC[C@@H]4CCC[C@H](NC(=O)c5cc6cc([C@H](F)P(=O)(O)O)ccc6s5)C(=O)N43)C3(CC3)[C@H]2C#N)c1 (single isomer, unassigned) [Compound 847] | 1000 to 10000 | – | 300 to 3000 |
| COc1cncc([C@H]2CN(C(=O)[C@@H]3CC[C@@H]4CCCC[C@H](NC(=O)c5cc6cc([C@H](F)P(=O)(O)O)ccc6s5)C(=O)N43)C3(CC3)[C@@H]2C#N)c1 (single isomer, unassigned) [Compound 848] | 1000 to 10000 | 300 to 3000 | – |
| O=C(N[C@H]1CCC[C@H]2CC[C@@H](C(=O)N3CC(c4cncnc4N4CCOCC4)C3)N2C1=O)c1cc2cc([C@H](F)P(=O)(O)O)ccc2s1 (single isomer, unassigned) [Compound 857] | < 100 | 3000 to 30000 | – |
| O=C(N[C@H]1CCC[C@H]2CC[C@@H](C(=O)N3CC(c4cncnc4N4CCOCC4)C3)N2C1=O)c1cc2cc([C@@H](F)P(=O)(O)O)ccc2s1 (single isomer, unassigned) [Compound 861] | < 100 | 3000 to 30000 | – |
| COC[C@@H]1CCN1c1ncncc1C1CN(C(=O)[C@@H]2CC[C@@H]3CCC[C@H](NC(=O)c4cc5cc([C@H](F)P(=O)(O)O)ccc5s4)C(=O)N32)C1 (single isomer, unassigned) [Compound 862] | < 100 | 3000 to 30000 | – |
